Measurements taken from article PMC13077603, “Fluorine‐18‐Labeled Nucleotide Analogs Targeting Ecto‐5'‐Nucleotidase (CD73) for Positron Emission Tomography Imaging of Solid Tumors” (Angewandte Chemie (International Ed. in English), 2026).

Tests used:
[1] = target: T1, Mouse membrane‐bound CD73 (membrane preparation of 4T1.2 breast cancer cell line) (Mus musculus, UniProt Q61503); test: CD73 enzyme inhibition assay, mouse membrane-bound CD73; type: biochemical; details: membrane preparation of mouse 4T1.2 breast cancer cell line, Km 67.6 µM, substrate AMP (5 µM)
T1 construct: endogenous in cells; host or cells: 4T1.2 mouse breast cancer cell line, membrane preparation (as named in the result head)
T1 sequence (Q61503 29-576): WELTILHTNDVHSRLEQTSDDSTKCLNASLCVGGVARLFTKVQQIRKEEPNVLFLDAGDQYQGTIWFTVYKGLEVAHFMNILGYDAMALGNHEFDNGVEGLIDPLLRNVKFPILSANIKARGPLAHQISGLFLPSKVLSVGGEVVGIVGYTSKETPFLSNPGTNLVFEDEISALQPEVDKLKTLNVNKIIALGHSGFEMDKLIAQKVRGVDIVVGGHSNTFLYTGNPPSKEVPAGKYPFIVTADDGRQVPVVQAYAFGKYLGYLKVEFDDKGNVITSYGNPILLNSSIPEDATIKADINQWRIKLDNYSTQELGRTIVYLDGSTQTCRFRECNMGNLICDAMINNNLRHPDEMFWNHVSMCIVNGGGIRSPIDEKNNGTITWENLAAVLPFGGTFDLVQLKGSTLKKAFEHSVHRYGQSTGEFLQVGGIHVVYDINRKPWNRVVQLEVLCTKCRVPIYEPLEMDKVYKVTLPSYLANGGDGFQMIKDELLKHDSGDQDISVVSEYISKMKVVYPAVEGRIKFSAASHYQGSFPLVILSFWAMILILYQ
Experimental: Both compounds were evaluated for metabolic stability in mouse liver microsomes (MLM) and plasma protein binding (PPB) (Table 1).
The CD73 enzyme inhibition assay of recombinant soluble CD73, membrane-bound human CD73, soluble rat CD73 and mouse CD73 was performed as previously described.^[16,35^]

[2] = target: T2, CD73/AMPase activity in human breast tumor tissues (Homo sapiens, UniProt P21589); test: In situ enzyme histochemistry of AMPase activity in breast tumor cryosections; type: biochemical; details: 10–50 nM inhibitor, 400 µM AMP, tissue cryosections
T2 construct: cryosections of breast tumor samples as well as sentinel lymph node samples were investigated; from tissue; host or cells: primary breast tumors and sentinel lymph nodes of two patients, 6 µm cryosections
T2 sequence (P21589 27-574): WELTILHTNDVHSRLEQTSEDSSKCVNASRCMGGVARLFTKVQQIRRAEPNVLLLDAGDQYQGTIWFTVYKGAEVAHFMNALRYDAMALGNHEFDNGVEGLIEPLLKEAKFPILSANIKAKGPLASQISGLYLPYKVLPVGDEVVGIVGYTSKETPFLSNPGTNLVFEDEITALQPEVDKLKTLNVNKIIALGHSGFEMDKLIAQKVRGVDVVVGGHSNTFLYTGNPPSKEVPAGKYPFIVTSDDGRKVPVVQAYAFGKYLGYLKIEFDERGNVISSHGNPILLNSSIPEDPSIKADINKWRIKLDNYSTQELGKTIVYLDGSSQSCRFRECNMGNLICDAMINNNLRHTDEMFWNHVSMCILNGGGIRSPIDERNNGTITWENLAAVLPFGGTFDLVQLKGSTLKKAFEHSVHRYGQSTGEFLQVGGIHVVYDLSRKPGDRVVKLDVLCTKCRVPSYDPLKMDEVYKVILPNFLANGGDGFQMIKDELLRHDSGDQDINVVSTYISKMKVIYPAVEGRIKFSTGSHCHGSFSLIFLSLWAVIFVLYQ
Experimental: Subsequent analysis of CD73‐mediated AMPase activities was performed by incubating tissue cryosections with AMP and CD73 inhibitors at different concentrations. Figure 2 depicts representative images of AMP‐specific staining in breast tumors from patient X (panel A) and patient Y (panel B), determined in the absence (control) and in the presence of 10 nM of the potent CD73 inhibitor 1.
FIGURE 3 Effects of CD73 inhibitors on AMPase activity in human breast tumor tissues. The effects of CD73 inhibitors on AMPase activity was determined in situ by incubating primary breast tumor samples from patient X (A) and patient Y (B) with 400 µM AMP and 1.5 mM Pb(NO3)2 in the absence (control) and the presence of the indicated concentrations of CD73 inhibitor. (C). Mean pixel intensities of brown staining due to the hydrolysis of AMP leading to Pb3(PO4)2 precipitation were quantified in the selected regions and expressed as arbitrary units (AU) (mean ± SEM; n = 2). Scale bars: 2 mm (A, B), and 500 µm (A, right insets).
For the localization of AMPase activities in human tumors, the lead nitrate-based enzyme histochemistry was employed. […] AMPase activity was determined by measuring AMP-specific brown staining intensities from the images using QuPath v.0.3.0 software. […] The average DAB intensity levels were measured as described earlier.^[39^] […]

CCCN(Cc1ccc(-c2cn(CCF)nn2)cc1)c1nc(Cl)nc2c1ncn2[C@@H]1O[C@H](COP(=O)(O)CP(=O)(O)O)[C@@H](O)[C@H]1O [compound 1]
Ki [1]: 47.8 nM
Reduction of CD73/AMPase activity in the breast TME [2]: 60%–70
